Drawing on article PMC11727579, “Thermal proteome profiling unveils protein targets of deoxycholic acid in living neuronal cells” (Advanced Biotechnology, 2023), this text covers EC50 for one molecule.

The target of one assay is T1, Casein kinase 1 epsilon (Homo sapiens, UniProt P49674).
T1 construct: gene CSNK1E
Briefly: thermal proteome profiling (iTRAQ LC-MS/MS), isothermal dose-response stabilization at […] °C, SH-SY5Y cells. It counts as biochemical.

A further assay has as its target T2, Nicastrin (Homo sapiens, UniProt Q92542).
T2 construct: gene NCSTN
Described as above. Format: biochemical.

Each structure is given as a SMILES string.

T1 sequence (P49674 whole entry): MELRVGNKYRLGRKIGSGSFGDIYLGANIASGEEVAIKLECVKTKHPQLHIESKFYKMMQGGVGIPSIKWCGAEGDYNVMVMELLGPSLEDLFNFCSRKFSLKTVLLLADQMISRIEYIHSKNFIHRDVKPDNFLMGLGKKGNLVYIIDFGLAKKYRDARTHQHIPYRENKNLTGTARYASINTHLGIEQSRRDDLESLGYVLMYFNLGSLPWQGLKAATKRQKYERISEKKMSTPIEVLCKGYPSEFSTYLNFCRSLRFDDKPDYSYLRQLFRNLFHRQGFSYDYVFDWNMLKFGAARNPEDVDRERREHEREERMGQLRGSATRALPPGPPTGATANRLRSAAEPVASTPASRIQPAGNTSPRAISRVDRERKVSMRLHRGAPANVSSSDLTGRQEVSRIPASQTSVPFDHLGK
T2 sequence (Q92542 34-709): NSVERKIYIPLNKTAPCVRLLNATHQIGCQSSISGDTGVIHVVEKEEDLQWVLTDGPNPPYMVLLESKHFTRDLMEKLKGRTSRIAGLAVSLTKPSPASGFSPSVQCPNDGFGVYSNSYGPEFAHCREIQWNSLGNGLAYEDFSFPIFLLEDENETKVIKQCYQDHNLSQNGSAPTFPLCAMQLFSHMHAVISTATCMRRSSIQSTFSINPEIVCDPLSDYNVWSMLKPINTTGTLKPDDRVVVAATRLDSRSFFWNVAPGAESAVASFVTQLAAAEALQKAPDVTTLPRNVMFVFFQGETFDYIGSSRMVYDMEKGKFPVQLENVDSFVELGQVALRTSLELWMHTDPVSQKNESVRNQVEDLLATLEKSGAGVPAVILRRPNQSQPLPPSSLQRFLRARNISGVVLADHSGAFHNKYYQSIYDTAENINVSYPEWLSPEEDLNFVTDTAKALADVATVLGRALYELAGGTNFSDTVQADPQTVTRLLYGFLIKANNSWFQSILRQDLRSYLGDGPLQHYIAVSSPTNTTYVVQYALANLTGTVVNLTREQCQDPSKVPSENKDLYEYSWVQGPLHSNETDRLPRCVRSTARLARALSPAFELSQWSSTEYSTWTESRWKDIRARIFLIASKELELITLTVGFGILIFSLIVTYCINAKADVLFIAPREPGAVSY

A word on the EC50: it is the concentration needed to bring the measured effect to its halfway point. Consider `C[C@H](CCC(=O)O)[C@H]1CC[C@H]2[C@@H]3CC[C@@H]4C[C@H](O)CC[C@]4(C)[C@H]3C[C@H](O)[C@]12C` [deoxycholic acid], for which the concentration giving a half-maximal response (EC50) at Casein kinase 1 epsilon came out at 7.22 µM; on Nicastrin, 6.03 µM.
